Measurements published in patent publication US20250049750A1, “MALTODEXTRIN FORMULATIONS” (Amazentis SA, priority 2023, published 2025).

Assay: Phase II single-dose oral pharmacokinetic study of urolithin A in a maltodextrin formulation
Format: in vivo
Settings: human, n = 12
Procedure: A phase II clinical study was carried out to determine the bioavailability of urolithin A when dosed in a formulation containing maltodextrin to human subjects.
In particular, the pharmacokinetic parameters of the compound were investigated in an open-label, parallel-arm, randomized, single-period, single-dose pharmacokinetic study. Subject enrolled where healthy volunteers, both males and females aged between 18 and 45 years. Formulation details and clinical study procedures are described in the method section below.
Subjects were administered orally as a single dose with a maltodextrin formulation (Table 2). The formulations was administered to deliver a total dose of 500 mg Urolithin A per dosing. Plasma samples were collected pre-dosing and at sequential time points after dosing, i.e. 1 hr, 4 hrs, 6 hrs, 8 hrs, 12 hrs, 24 hrs, 72 hrs. Plasma levels of parent Urolithin A were determined and expressed as pg/ml.
A total of 24 participants were enrolled in the study (12 subject per group). Subjects were healthy male and female participants. Subjects were selected after a screening to meet all the following criteria aged between 18 and 45 years; with Body Mass Index (BMI) between 18.50-30.00 kg/m2;
Maltodextrin formulation (urolithin A Powder with Maltodextrin): half a scoop (1.5 g) of powder, containing 500 mg of Urolithin A. Composition is described in Table 2.
Mode of Administration: Participants take the powder orally on an empty stomach in a sitting position, after an overnight fast. The powder was mixed with 240±2 mL of milk, shaken well, and consumed. It was ensured that all liquid was swallowed without leaving any residue behind or retaining in the mouth.
This study was an open-label, parallel-arm, single-period, single-dose, randomized study wherein each participant received a single dose of allocated investigational product administered orally to the trial participants in a sitting posture. The formulation was administered with about 240 mL of whole milk (3% fat content) in a sitting posture.
PK blood samples were collected at pre-dose and post-dose at 1 hr, 4 hrs, 6 hrs, 8 hrs, 12 hrs, 24 hrs, 72 hrs. PK blood samples were collected by direct vein puncture or using a venous cannula. When multiple blood sample collection were scheduled on the same day from the same participant, at the discretion of the investigator, a venous cannula was inserted and blood samples collected from the cannula to avoid multiple pricks. For the same, an intravenous (IV) cannula was placed in a forearm vein or dorsal aspect of the hand of the participants. Intravenous indwelling cannula kept in situ as long as required by injecting 0.3 mL of normal saline or heparinized saline (to prevent the cannula from clogging). Because the cannula contains stagnant blood and normal or heparinized saline, it was […] before collection of the pharmacokinetic blood sample, for the same, 0.3 mL (or as appropriate depending upon the size and length of the cannula) of normal saline/heparinized saline diluted blood was discarded prior to collection of the next PK sample. […] All PK blood samples was collected or transferred (in case if collected in a syringe) in K2-EDTA blood collection tubes.
After collection, the PK blood samples were centrifuged at 4000 RPM at 4° C.±2° C. for 10 minutes. The plasma was separated and transferred to labeled polypropylene tubes and stored in a freezer at −80° C.±10° C. Pharmacokinetics parameters of Urolithin A were calculated from the concentration Vs. time data using Phoenix@WinNonlin® professional software (Version 8.1.1 or higher) (Certara, Princeton, New Jersey, USA).

With O=c1oc2cc(O)ccc2c2ccc(O)cc12 [Urolithin A] the “Urolithin concentrations in blood, Mean” value (Pre-dose, plasma parent Urolithin A) was 1.00 pg/mL, the concentration at 1 h (both sexes, 1 h after single oral 500 mg Urolithin A in maltodextrin formulation, plasma, read-out: Urolithin concentrations in blood, Mean) was 0.551 ng/mL and the concentration at 4 h (both sexes, 4 h after single oral 500 mg Urolithin A in maltodextrin formulation, plasma, read-out: Urolithin concentrations in blood, Mean) was 1.07 ng/mL. It also gave a concentration at 6 h (both sexes, 6 h after single oral 500 mg Urolithin A in maltodextrin formulation, plasma, read-out: Urolithin concentrations in blood, Mean) of 1.4 ng/mL, a concentration at 8 h (both sexes, 8 h after single oral 500 mg Urolithin A in maltodextrin formulation, plasma, read-out: Urolithin concentrations in blood, Mean) of 0.775 ng/mL and a concentration at 12 h (both sexes, 12 h after single oral 500 mg Urolithin A in maltodextrin formulation, plasma, read-out: Urolithin concentrations in blood, Mean) of 0.72 ng/mL. For the same molecule, the concentration at 24 h (both sexes, 24 h after single oral 500 mg Urolithin A in maltodextrin formulation, plasma, read-out: Urolithin concentrations in blood, Mean) was 0.404 ng/mL and the concentration at 72 h (both sexes, 72 h after single oral 500 mg Urolithin A in maltodextrin formulation, plasma, read-out: Urolithin concentrations in blood, Mean) was 0.167 ng/mL.
